Results reported in paper PMC3699461, “Ground State Destabilization by Anionic Nucleophiles Contributes to the Activity of Phosphoryl Transfer Enzymes” (PLoS Biology, 2013).
Several values for one entry are separate records, joined by “and”; a condition that tells them apart may be missing. Equal entries are not always repeated. Where two headings read alike, the source gives them in different places.

Tests used:
[1] = target: AP with mutation of Arg166; details: read-out: Pi binding constant of Arg166 mutants; pH 8.0; cited from earlier work
WT AP [2] = target: T1, WT AP (Escherichia coli, UniProt P00634); details: 0.1–10 µM WT AP, standard buffer
Description: (§1) The following buffers were used over the indicated pH ranges: NaAcetate (4.5–5.5), NaMES (5.5), NaMaleate (6.0–6.5), Tris•HCl (7.0–7.5), NaMOPS (7.0–8.0), NaCHES (8.5–9.0), and NaCAPS (10–10.5).
(§2) The retentate is expected to contain both free and bound ^32Pi. […] Scintillation counting of both the filtrate and retentate was used to measure the concentrations of free and bound ^32Pi at the various AP concentrations, and the fraction ^32Pi bound dependence on the AP concentration was used to determine dissociation constants using a modified binding equation, f bound = (C)×([AP]/([AP]+K [drawing 148] ))+(1–C), where C allows for background levels of apparent binding in the absence of protein.
(§3) To measure the uptake of ^32Pi by the AP sample, the fraction of ^32Pi bound was measured over time starting just after the addition of ^32Pi to the AP samples.

WT Stp1 = WT Stp1 (Schizosaccharomyces pombe, UniProt P41893); details: pH 6.0, protein up to 500 µM
Description: The buffer conditions, pH, and temperature were the same as those for the WT Stp1 kinetic inhibition assays (Figure S14A).
(EPS) Click here for additional data file.

[3] = cited from earlier work
S102G/R166S AP [4] = target: T2, S102G/R166S AP (Escherichia coli, UniProt P00634, R188S/S124G); details: Table 2
Description: as §1, §2, §3

S102G AP = S102G AP (Escherichia coli, UniProt P00634, S124G); details: for trianion versus dianion differential affinity: S102G AP, Table 2
Description: as §2, §3

R166S AP = R166S AP (Escherichia coli, UniProt P00634, R188S); details: fit of Figure 4B, two-state model
Experimental: The tungstate affinity for R166S AP was determined by inhibition of pNPP hydrolysis as was done previously with WT AP [20], but under the standard buffer conditions used in this work. A range of tungstate concentrations was used from at least 5-fold below and above the inhibition constant at each pH.

WT AP [5] = target: T1, WT AP; details: cited from earlier work
S102G/R166S AP [6] = target: T2, S102G/R166S AP; details: fit of Figure 4B, two-state model
Experimental: (§4) After this first incubation, trace ^32Pi was added and the sample was incubated further to allow ^32Pi binding to complete.

[7] = ionic strength I = 0.1 for the value 6.9; cited from earlier work
WT AP [8] = target: T1, WT AP
Experimental: as §4
A competition-binding assay at pH 8.0 for WT AP (see Materials and Methods for assay details) under the standard buffer conditions.

Chain of S102G AP (P00634 23-471 S124G): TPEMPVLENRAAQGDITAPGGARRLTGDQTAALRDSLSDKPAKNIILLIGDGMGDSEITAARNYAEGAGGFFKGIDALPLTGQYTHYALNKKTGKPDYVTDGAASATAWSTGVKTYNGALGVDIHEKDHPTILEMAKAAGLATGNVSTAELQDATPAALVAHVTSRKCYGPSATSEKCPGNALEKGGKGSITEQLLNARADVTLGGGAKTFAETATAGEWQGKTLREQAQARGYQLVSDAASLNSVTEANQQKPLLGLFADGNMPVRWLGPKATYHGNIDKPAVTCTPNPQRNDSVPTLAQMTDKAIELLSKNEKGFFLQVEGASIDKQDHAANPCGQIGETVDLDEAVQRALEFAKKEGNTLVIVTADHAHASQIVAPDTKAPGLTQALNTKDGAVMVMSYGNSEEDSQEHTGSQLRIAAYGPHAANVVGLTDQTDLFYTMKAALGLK
T1 sequence (P00634 22-471): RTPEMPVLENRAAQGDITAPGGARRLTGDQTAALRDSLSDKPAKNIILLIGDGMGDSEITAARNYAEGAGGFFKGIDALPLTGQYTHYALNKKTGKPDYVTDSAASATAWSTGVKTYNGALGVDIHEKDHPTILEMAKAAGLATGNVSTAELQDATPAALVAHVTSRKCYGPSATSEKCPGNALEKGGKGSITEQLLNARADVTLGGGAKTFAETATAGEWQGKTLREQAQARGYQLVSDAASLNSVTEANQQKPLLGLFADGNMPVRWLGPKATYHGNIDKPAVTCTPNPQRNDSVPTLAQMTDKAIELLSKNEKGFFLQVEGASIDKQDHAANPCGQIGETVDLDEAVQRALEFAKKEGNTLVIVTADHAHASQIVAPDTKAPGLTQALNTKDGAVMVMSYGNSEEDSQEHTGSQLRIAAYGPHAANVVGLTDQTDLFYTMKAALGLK
T2 sequence (P00634 23-471 S124G/R188S): as the sequence (P00634 23-471 S124G) above, with R166S counted along it
Chain of R166S AP (P00634 23-471 R188S): as the sequence (P00634 23-471 S124G) above, with G102S, R166S counted along it
Chain of WT Stp1 (P41893 whole entry): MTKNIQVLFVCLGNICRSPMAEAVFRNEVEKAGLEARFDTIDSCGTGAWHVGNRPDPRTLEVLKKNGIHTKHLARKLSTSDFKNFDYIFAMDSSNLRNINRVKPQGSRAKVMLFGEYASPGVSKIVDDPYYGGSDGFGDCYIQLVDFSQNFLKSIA

SMILES: O=P(O)(O)O [Pi, inorganic phosphate]
- Ki [1]: 460 µM and 640 µM
- observed 32Pi uptake rate constant kobs (WT AP [2]): ≥ 0.03 s⁻¹
- Pi binding in the equilibrium-binding assay (WT Stp1): No significant Pi binding

SMILES: Nc1ncnc2c1ncn2[C@@H]1O[C@H](COP(=O)(O)OP(=O)(O)OP(=O)(O)O)[C@@H](O)[C@H]1O [ATP]
- kuncat, uncatalyzed hydrolysis ([3]; 25 °C, 44 of the supplement): ~ 5×10^-11 M^-1s^-1

SMILES: O=P(O)(O)O [PO4^3-]
- trianion versus dianion differential affinity (S102G/R166S AP [4]): 4.3×10^5 fold
- trianion versus dianion differential affinity (S102G AP): 10^7 fold
- trianion versus dianion differential affinity (S102G AP; listed as PO): ~ 10^7 fold
- destabilization of Pi trianion binding by the Ser102 alkoxide (S102G AP; WT AP versus S102G AP): ≥ 10^8 fold

SMILES: Nc1nc2c(ncn2[C@@H]2O[C@H](COP(=O)(O)OP(=O)(O)OP(=O)(O)O)[C@@H](O)[C@H]2O)c(=O)[nH]1 [GTP]
- kuncat, uncatalyzed hydrolysis ([3]; 25 °C, 44 of the supplement): ~ 5×10^-11 M^-1s^-1

SMILES: [O]=[W](=[O])([O-])[O-] [tungstate]
- pH-independent dissociation constant for tungstate binding (R166S AP): 170±25 µM
- pH-independent dissociation constant for tungstate dianion binding (WT AP [5]; kinetic inhibition, solid line, data from ref 20): 0.57±0.11 µM
- Kd (WT AP [5]; read-out: dissociation constant for tungstate binding, pH 8.0): 1.1 µM
- pH-independent dissociation constant for tungstate binding (S102G/R166S AP [6]): 890±90 µM
- solution pKa [7]: ~4
- pH-independent dissociation constant for tungstate dianion binding (WT AP [8]; equilibrium-binding assay via competition with 32Pi, dashed line): 2.06±0.48 µM
- Kd (WT AP [8]; read-out: dissociation constant for tungstate binding, pH 8.0, standard buffer): 0.9 ± 0.2 µM

SMILES: COP(=O)(O)O [methyl phosphate dianion, methyl phosphate]
- kuncat, uncatalyzed hydrolysis ([3]; 25 °C, 44 of the supplement): ~ 4×10^-22 M^-1s^-1
- kuncat, uncatalyzed hydrolysis [3]: ~4e-22 M⁻¹ s⁻¹
